The numbers were not newly measured in patent publication US8747898B2, “Controlled release oral dosage form” (Andrx Pharmaceuticals, LLC, priority 1999, dated 2014), which cites them from elsewhere.

Where a name gives a salt, the structure may show the parent alone.

The conditions of data set [1]: in words.
For data set [2] the following is noted: in words. This is another data set of the same source.
For data set [3], the system named is norepinephrine uptake. Particulars: in words.
For data set [4], the system named is monoamine oxidase. The conditions noted are these: in words.

For the compound `CC(NC(C)(C)C)C(=O)c1cccc(Cl)c1` (stereo not drawn) [Bupropion hydrochloride, bupropion hydrochloride], the permeability result in data set [1] is “high permeability”. Moreover, in data set [2], the solubility in water result is listed as “highly soluble”.

As for `CC(NC(C)(C)C)C(=O)c1cccc(Cl)c1` (stereo not drawn) [bupropion], under “following single doses”, the “terminal T ½” value is “about 14 hours”. Also, the “mean half-life of distributive phase” value (two-compartment model) is 3 to 4 h. Further, the “blockade of norepinephrine uptake” value in data set [3] is “weak blocker”. Further, in data set [4], the “inhibition of monoamine oxidase” value is “does not inhibit”.
